Here are results for one compound from patent publication US20250109120A1, “INDOLINE DERIVATIVES FOR TREATMENT AND/OR PREVENTION OF TUMOR OR CELL PROLIFERATIVE AND FIBROSIS DISEASES” (NATIONAL TAIWAN UNIVERSITY, priority 2023, published 2025).

What all share (assay type): cell-based, human
Data set [1] has as its system DU145 cells. In words: MTT cell cytotoxicity assay. The procedure: (§1) FIGS. 2A-2D show the evaluation of CDK8 inhibition by compound k. […] Cell viability was measured by MTT assay, and the 50% inhibitory concentration (IC50) values were calculated by a sigmoidal dose-response equation. […] Whole-cell lysates were subjected to western blotting with the indicated antibodies. The results are shown as the mean t SEM from at least three independent experiments (*p<0.05, **p<0.01, and ***p<0.001 vs. control group; #p<0.05 vs. relevant control).
(§2) Cell cytotoxicity was evaluated using the MTT assay. […] Then, 0.5 mg/mL MTT was added, and the plates were incubated for an additional 2 h at 37° C. The cells were then pelleted and lysed in 100 μL of dimethyl sulfoxide, and the absorbance at 550 nm was measured with a microplate reader.

The test system of data set [2] is PC-3 cells. In words: MTT cell cytotoxicity assay. The procedure:
as §1, §2
For orientation: Tetrazolium dyes change colour on reduction, which living cells bring about.

Data set [3] relates to STAT1-S727 phosphorylation (CDK8/19 kinase activity). The data set can be described thus: STAT1-S727 phosphorylation western blot in DU145/PC-3 cells. The procedure:
as §1
(§3) The cells were incubated in lysis buffer for 10 min at 4° C., scraped off, incubated on ice for an additional 10 min and then centrifuged at 17,000 g for 30 min at 4° C. Protein samples were electrophoresed on SDS-PAGE gels, transferred to PVDF membranes and blocked with 5% fat-free milk in PBS for 30 min at room temperature. Immunoblotting was performed overnight with primary antibodies in PBS at 4° C., followed by incubation with HRP-conjugated secondary antibodies for 1 h at room temperature. Bound antibodies will be measured using an ECL reagent and exposed to a photographic film. In the immunoprecipitation assay, cell lysates were immunoprecipitated with 1 μg of antibody and A/G agarose beads overnight at 4° C. After washing the precipitated beads three times with 1 mL ice-cold cell lysis buffer, bound immune complexes were separated by 10% SDS-PAGE and analyzed with immunoblotting.

Data set [4] concerns A549 cells. In words: TGF-β1-induced EMT protein expression, western blot. Particulars: test compounds 2 μM, senexin A 5 μM, pirfenidone 1 mM; TGF-β1 10 ng/mL. The method, then:
(§4) FIGS. 4A-4B show the inhibition of epithelial-to-mesenchymal transition protein expressions by CDK8 inhibitors in human alveolar epithelial cells. […] Cell lysates were subjected to a Western blot analysis using the indicated antibodies. Results are shown as the mean t SEM from three independent experiments. *p<0.05, and ***p<0.001 compared to the control group; #p<0.05, ##p<0.01, and ###p<0.001 compared to the TGF-β1-treated group. […] Cell viabilities were determined by an MTT assay. Results are shown as the mean t SEM of three independent experiments.
Cells (106) were incubated for 10 min at 4° C. in lysis buffer (20 mM HEPES at pH 7.4, 2 mM EGTA, 50 mM β-glycerophosphate, 0.1% Triton X-100, 10% glycerol, 1 mM DTT, 1 μg/mL of leupeptin, 5 μg/mL of aprotinin, 1 mM phenylmethylsulfonyl fluoride, and 1 mM sodium orthovanadate), scraped off, incubated on ice for an additional 10 min, and centrifuged at 17,000 g for 30 min at 4° C. Protein samples (20 μg) were then electrophoresed on SDS-polyacrylamide gel electrophoresis (PAGE) gels and transferred to a nitrocellulose membrane, which was then blocked by incubation for 30 min at room temperature with 5% bovine serum albumin (BSA) in Tris-buffered saline with 0.1% Tween-20 (TBST). Immunoblotting was performed by overnight incubation at 4° C. with primary antibodies in TBST, followed by incubation for 1 h at room temperature with horseradish peroxidase (HRP)-conjugated secondary antibodies. Bound antibodies were measured using enhanced chemiluminescence (ECL) reagent (GE Healthcare, UK) and exposed to photographic film.
A general note: Immunoblotting shows a protein as a band on a membrane.

Data set [5] deals with A549 cells. In words: MTT cell viability assay. The following applies: 12, 24 and 48 h, up to 10 μM. The method, then: as §4
Cell cytotoxicity was measured by a colorimetric MTT assay. […] After various treatments, 1 mg/mL of MTT was added, and the plates were incubated at 37° C. for an additional 2 h. Then cells were pelleted and lysed with 10% sodium dodecylsulfate (SDS) with 0.01 M HCl, and the absorbance at 570 nm was measured on a microplate reader.

The subject of data set [6] is DU145 cells. The data set can be described thus: TGF-β1-induced morphology change and wound migration. Particulars: TGF-β1 10 ng/mL. The method, then: Images of the morphology of cells were taken at ×100 magnification. […] The cells were incubated with or without TGF-β1 (10 ng/mL) and compound k (2.5 and 10 μM), allowed to migrate into the wound area for 48 h and photographed. Cell migration into the wound was quantified using ImageJ software; the white solid line indicates time zero. The quantitative assessment of the mean number of cells in the scratch area is expressed as the mean t SEM from at least three independent experiments (***p<0.001 vs. control group; ##p<0.01 and ###p<0.001 vs. TGF-β1 treatment group). (C) PC-3 cells were incubated with 10 μM compound k/senexin A for 1 h, subsequently treated with TGF-β1 (10 ng/mL) for 24 h and incubated with the indicated antibodies and DAPI. The immunofluorescence images were photographed by a ZEISS ApoTome.2 microscope. Images were taken at 600× magnification.

The subject of data set [7] is DU145 cells. In words: TGF-β/Smad/RNA polymerase II signaling, western blot, fractionation, immunoprecipitation. The following applies: 10 μM. The method, then: Whole-cell lysates were subjected to western blotting with the indicated antibodies. […] The proteins in the cytosol and nucleus were detected by western blotting analysis, and the proteins expression in the nucleus were quantified. […] The results are shown as the mean±SEM from at least three independent experiments (*p<0.05, **p<0.01, and ***p<0.001 vs. control group; #p<0.05, ##p<0.01, and ###p<0.001 vs. TGF-β1 treatment group; § p<0.05, §§ p<0.01 vs. indicated group).
as §3

The subject of data set [8] is DU145 cells. In words: LiCl-induced β-catenin signaling, western blot. The following applies: LiCl 20 mM; senexin A 10 μM. The method, then:
(§5) Inhibitory phosphorylation of GSK3β was evaluated through western blotting. […] Whole-cell lysates were subjected to western blotting with the indicated antibodies. FIGS. 11J-11K show the comparison of basal activities of the Akt/GSK3β axis between PC-3 and DU145 cells. […] The results are shown as the mean±SEM from at least three independent experiments (*p<0.05, **p<0.01, ***p<0.001 vs. control group; #p<0.05, ##p<0.01, and ###p<0.001 vs. relevant control).
as §3

In data set [9] the test system is PC-3 cells. In words: β-catenin target protein expression, western blot. Particulars: 24 h. The method, then:
as §5, §3

As usually defined, the IC50 is the point on the concentration scale where inhibition reaches its midpoint. Low values mean greater potency, high ones weaker potency. In the case of `CNC(=O)c1cc(Oc2ccc(NS(=O)(=O)c3ccc4c(c3)C(=C(C)C)C(=O)N4)c(F)c2)ccn1` [Compound k, 4-(3-Fluoro-4-((2-oxo-3-(propan-2-ylidene)indoline)-5-sulfonamido)phenoxy)-N-methylpicolinamide], the IC50 in data set [1] (DU145, 24 h) is > 30 µM; in data set [1] (DU145, 72 h) it was > 30 µM; in data set [2] (PC-3, 24 h), > 30 µM; in [2] (PC-3, 72 h) it was > 30 µM. Also, in data set [3] (DU145/PC-3, 24 h, concentration-dependent), the “phosphorylation of STAT1 at Ser727” value was “suppressed”. Besides, in data set [3] (pcDNA3 CDK8 HA transfected DU145 and PC-3, concentration-dependent), the “phosphorylation of STAT1 at Ser727 in CDK8-overexpressing cells” value is “significantly inhibited”. In addition, the “TGF-β1-triggered EMT protein expressions” value in data set [4] is “significant inhibition”. Further, in data set [5], the cell viability result is “did not significantly change”. Also, the “TGF-β1-induced migration (wound closure)” value in data set [6] (2.5 and 10 μM, 48 h) is “significantly inhibited”. The TGF-β1-induced morphological transition entry in [6] (24 h) was “appeared to reverse these effects”. The “binding of CDK8 to RNA polymerase II (Ser2/5), Smad3 and Pin1 (immunoprecipitation)” value in data set [7] (TGF-β1 10 ng/mL) is “inhibited”. The “phosphorylation of Smad3 and RNA polymerase II in nuclear fraction” value in data set [7] (TGF-β1 10 ng/mL 1 h) is reported as “markedly suppressed”. For the same compound, in data set [7] (TGF-β1 10 ng/mL 24 h), the “expression of mesenchymal markers (N-cadherin, Snail)” value is on record as “significantly downregulated”. For the same compound, the “levels of active form of β-catenin and Snail” value in data set [8] was “reduced the levels”. Besides, the Snail expression entry in data set [9] is given as “markedly inhibited”.
